Experimental data reported in ChEMBL document CHEMBL5728197, “KDM1A inhibitors for the treatment of disease” (2021).

Molecular target: Lysine-specific histone demethylase 1A (Homo sapiens, UniProt O60341)
Experiment: Biological Activity Assay: Assaying the inhibition of KDM1A can be determined in vitro, in cultured cells, and in animals. There are a variety of spectrophotometric methods to detect the results of demethylation of methylated lysines, viz., detecting the products of KDM1A demethylase oxidative activity on a peptide fragment of at least 18 amino acid representing the N-terminus of the histone H3 substrate that contains a monomethyl at the fourth lysine residue. Hydrogen peroxide, one product of the KDM1A demethylase reaction, reacts with horseradish peroxidase and dihydroxyphenoxazine (ADHP) to produce the fluorescent compound resorufin (excitation=530-560 nm:emission=590 nm). The KDM1A demethylase enzyme activity can obtained from mammalian cells or tissues expressing KDM1A from an endogenous or recombinant gene and purified or assayed from a whole cell extract. These methods can be used to determine the concentration of the disclosed compounds can inhibit fifty percent of the enzyme activity (IC50).

SMILES: COc1ccc([C@@H]2C[C@H]2NC(=O)COC[C@H](NC(=O)c2ccc(F)cc2)C(=O)N2CCOCC2)cc1
- IC50: > 1 µM

SMILES: O=C(N[C@@H](COCCN[C@@H]1C[C@H]1c1ccc(F)cc1)C(=O)N1CCOCC1)c1ccc(F)cc1
- IC50: < 1 µM
